Reference: patent US12594292B2, “Antiviral prodrugs, intermediate-and long-acting formulations and methods” (priority 2022, dated 2026)
Like-named read-outs stand apart in the source and are kept apart here.

Experiments:
human PBMCs = assay: Cytotoxicity (CC50) in human PBMCs; type: cell-based
HIV-1 = conditions: variation of the diester substituent of ODE-TFV; for EC50: HIV infected human PBMCs
Protocol: Antiviral activities were determined in HIV infected human PBMCs.

[1] = tested on: SARS-CoV-2 isolate USA-WA1/2020; assay: SARS-CoV-2 infection in PSC-human lung cells, qRT-PCR (Example 7); type: cell-based; conditions: PSC-human lung cells, MOI 0.01, 48 hours
VERO E6 cells [2] = assay: Cell viability assay CellTiter-Glo, Vero E6 cells (Example 7)
Huh7.5 cells [3] = assay: Cytotoxicity in Huh7.5 cells, nuclei count (Example 6); type: cell-based, human
HCoV-229E = type: cell-based, human Coronavirus 229E
[4] = tested on: SARS-CoV-2 isolate USA-WA1/2020; assay: SARS-CoV-2 infection in Huh7.5 cells, qRT-PCR (Example 7); type: cell-based
[5] = tested on: USA WA-01 strain of SARS CoV-2; assay: Anti-coronavirus activity in Vero E6 cells, qPCR of spike RNA (Example 2); type: cell-based
Protocol: (§1) Ten thousand Vero E6 cells were seeded in 100 microliters of culture medium in 96 well plates. The following day serial two-fold dilutions of antiviral compounds or the DMSO-containing vehicle were added to each well. The USA WA-01 strain of SARS CoV-2 was added to each well at a multiplicity of infection of 0.1 thirty minutes later. Cells were incubated for 48 hours, washed twice in PBS and lysed with TRIzol. RNA was extracted using Directzol micro RNA columns. RNA was made into cDNA and assayed for the SARS CoV-2 spike protein and for a housekeeping gene (RPLPO) RNA by qPCR. Data represents the average of duplicate wells. Cellular cytotoxicity was also measured in VERO E6 cells. […] Cytotoxicity (CC50) was assessed using a commercially available MTT assay.

VERO E6 cells [6] = assay: Cellular cytotoxicity in Vero E6 cells, MTT assay (Example 2); type: cell-based
Protocol: as §1

VERO E6 cells [7] = assay: CellTiter-Glo luminescent cell viability assay, Vero E6 (Example 3); type: cell-based
Protocol: CellTiter-glo luminescent cell viability assay: Approximately 10^4 Vero E6 cells per well were seeded in opaque walled 96 well cell culture plates and incubated overnight. Compounds or controls were added at the indicated concentrations. […] Viability was calculated compared to untreated controls and CC50 values were calculated using Prism 8.
Determination of Cytotoxicity: The 50% cytotoxic concentrations (CC50) were determined with Cell Titer Glo (Cat. #G7570, Promega, Madison, WI) according to the manufacturer's instructions. The calculated CC50 values are shown in the foregoing table.
Relative viability was measured by CellTiter-Glo luminescent cell viability assay, as depicted at FIG. 2.

Huh7.5 cells [8] = assay: Cell viability assay CellTiter-Glo, Huh7.5 cells (Example 7)
[9] = tested on: SARS-CoV-2 isolate USA-WA1/2020; assay: SARS-CoV-2 infection in Vero E6 cells, qRT-PCR (Example 7); type: cell-based
[10] = tested on: SARS-CoV-2 isolate USA-WA1/2020; assay: SARS-CoV-2 infection in Vero E6 cells, qRT-PCR of Spike RNA (Example 3); type: cell-based
SARS-CoV-2 [11] = assay: SARS-CoV-2 infection assay in Huh7.5 cells, nucleocapsid immunofluorescence (Example 6); type: cell-based; conditions: MOI 0.1, 48 hours
Calu-3 cells = assay: Cytotoxicity in Calu-3 cells, nuclei count or CellTiter-Glo (Example 6); conditions: for select compounds up to 100 μM by CellTiter-Glo
Protocol: After which an equal volume of CellTiter-Glo reagent (Cat. #G7570, Promega, Madison, WI) was added, mixed and luminescence recorded on a Veritas Microplate Luminometer (Turner BioSystems) according to manufacturer recommendations.

SRV A2 strain of RSV = assay: RSV infection in Hep-2 cells, CPE reduction; type: cell-based, respiratory syncytial virus; conditions: RSV A2 in Hep-2 cells, 72 to 96 hours
Protocol: Methods: The SRV A2 strain of RSV was obtained from the ATCC. Ten thousand Hep-2 cells were seeded into each well of a 96-well plate in EMEM with 10% fetal bovine serum and 1% penicillin and streptomycin. Each well was inoculated with 100 TCID50 of virus. Two hours later wells were washed once with medium and serial four-fold dilutions of candidate antiviral drugs were added.

SARS-CoV-2 [12] = assay: SARS-CoV-2 infection assay in TMPRSS2-Vero cells, nucleocapsid immunofluorescence (Example 6); type: cell-based; conditions: MOI 0.01, 32 hours
Hep-2 cells = assay: Cell viability assay for the RSV table (CC50); type: cell-based; conditions: Hep-2 cells; read-out: CC50
TMPRSS2-Vero cells = assay: Cytotoxicity in TMPRSS2-Vero cells, nuclei count (Example 6); type: cell-based; conditions: TMPRSS2-Vero cells; read-out: CC50
SARS-CoV-2 [13] = assay: SARS-CoV-2 infection assay in Calu-3 cells, nucleocapsid immunofluorescence (Example 6); conditions: MOI 0.01, 44 hour
Calu 3 = assay: Antiviral evaluation of cyanobenzyl analogs, Calu 3; type: cell-based; conditions: Calu 3
Huh7.5 = assay: Antiviral evaluation of cyanobenzyl analogs, Huh7.5; type: cell-based
HFF cells = assay: Persistence of TFVpp in HFF cells after a 3 day exposure
From the text: HFF cells were exposed to 1 micromolar drug for 3 days. At days 0, 1, 2, 4, 7, 14, 21, and 28, cells were trypsinized, counted, and processed for LC/MS measurement of TFVpp. Data were expressed at ftg/cell. nm=not meaningful; ftg—gemtogram.

[14] = Huh7.5 cells, MOI 0.01, 48 hours, qRT-PCR (Example 7)
[15] = Vero E6 cells, MOI 0.1, 48 hours
[16] = Vero E6 cells, MOI 0.01, 48 hours
[17] = Vero E6 cells, MOI 0.01, 48 hours, mean±SD

For `CCCCCCCCCCCCCCCCCCOCCOP(=O)(CO[C@H](C)Cn1cnc2c(N)ncnc21)OCc1cccc(C)c1` (stereo partly shown) [3-methyl benzyl], the CC50 (human PBMCs; variation of the diester substituent of ODE-TFV, read-out: CC50) was 3860 nM, the “Selectivity Index” value (HIV-1) was 1210 and the EC50 (HIV-1) was 3.2 nM.
For `CCCCCCCCCCCCCCCCOCCCOP(=O)(O)OC[C@H]1O[C@@](C#N)(c2ccc3c(N)ncnn23)[C@H](O)[C@@H]1O` [Compound 4b, 3-(Hexadecyloxy)propyl-phospho-RVn], the EC50 [1] was 350 nM, the EC90 [1] was 940 nM and the CC50 (VERO E6 cells [2]) was > 100000 nM. For the same molecule, the CC50 (Huh7.5 cells [3]) was > 20000 nM, the EC50 (HCoV-229E) was 3020 ± 360 nM and the EC90 (HCoV-229E) was 6600 ± 1140 nM. The Selectivity ([4]; CC50/EC50, Huh7.5 cells) was >526, the EC50 [4, 14] was 190 nM and the EC90 [4, 14] was 400 nM. For the same molecule, the EC50 ([4]; Huh7.5 cells, MOI 0.01, 48 hours, qRT-PCR (Example 7), listed as HDP-P-RVn) was 190 nM, the “Selectivity Index” value ([5]; CC50/EC50, Vero E6) was 25.0 and the “times more active than remdesivir” value ([5]; USA WA-1 strain, Vero E6 cells) was 3.3. It also gave an EC50 [5, 15] of 840 nM, an EC90 [5, 15] of 1580 nM and a CC50 (VERO E6 cells [6]) of 21000 nM. For the same molecule, the CC50 (VERO E6 cells [7]) was 51000 nM, the CC50 (Huh7.5 cells [8]) was > 100000 nM and the CC50 (MRC-5 cells) was 32100 ± 17900 nM. For the same molecule, the Selectivity ([9]; CC50/EC50, Vero E6 cells) was >158, the EC50 [9, 16] was 630 nM and the EC90 [9, 16] was 730 nM. The Selectivity ([10]; CC50/EC50, Vero E6) was 52, the EC50 [10, 17] was 960 ± 170 nM and the EC90 [10, 17] was 2100 ± 780 nM.
With `CCCCCCCCCCCCCCCCOC[C@H](COP(=O)(O)OC[C@H]1O[C@@](C#N)(c2ccc3c(N)ncnn23)[C@H](O)[C@@H]1O)OCc1ccc(OC)c(F)c1` [Compound 15c, 1-O-Hexadecyl-2-O-(3-fluoro, 4-methoxybenzyl)-sn-glyceryl-phospho-RVn] the CC50 (Huh7.5 cells [3]; Huh7.5 cells, read-out: CC50) was > 20000 nM, the EC50 (HCoV-229E) was 360 ± 54 nM and the EC90 (HCoV-229E) was 1120 ± 100 nM. The EC50 (SARS-CoV-2 [11]) was 49 nM, the EC90 (SARS-CoV-2 [11]) was 113 nM and the CC50 (MRC-5 cells) was > 50000 nM. The CC50 (Calu-3 cells) was 75600 ± 3960 nM, the EC50 (SRV A2 strain of RSV) was 34 nM and the EC90 (SRV A2 strain of RSV) was 68 nM. For the same molecule, the EC50 (SARS-CoV-2 [12]) was 397 nM, the EC90 (SARS-CoV-2 [12]) was 869 nM and the CC50 (Hep-2 cells) was 20600 nM. For the same molecule, the CC50 (TMPRSS2-Vero cells) was > 20000 nM, the EC50 (SARS-CoV-2 [13]) was 51 ± 6 nM and the EC90 (SARS-CoV-2 [13]) was 221 ± 58 nM.
`CCCCCCCCCCCCCCCCCCOC[C@H](COP(=O)(O)OC[C@H]1O[C@@](C#N)(c2ccc3c(N)ncnn23)[C@H](O)[C@@H]1O)OCc1ccc(OC)c(F)c1` [Compound 15j, 1-O-Octadecyl-2-O-(3-fluoro-4-methoxy-benzyl)-sn-glyceryl-phospho-RVn] was tested, and the CC50 (Huh7.5 cells [3]; Huh7.5 cells, read-out: CC50) was > 20000 nM, the EC50 (HCoV-229E) was 74 ± 10 nM and the EC90 (HCoV-229E) was 170 ± 14 nM. The EC50 (SARS-CoV-2 [11]) was 56 nM, the EC90 (SARS-CoV-2 [11]) was 222 nM and the CC50 (MRC-5 cells) was > 50000 nM. The CC50 (Calu-3 cells) was 50600 ± 5420 nM, the EC50 (SRV A2 strain of RSV) was 10 nM and the EC90 (SRV A2 strain of RSV) was 19 nM. The EC50 (SARS-CoV-2 [12]) was 174 nM, the EC90 (SARS-CoV-2 [12]) was 341 nM and the CC50 (Hep-2 cells) was 9600 nM. For the same molecule, the CC50 (TMPRSS2-Vero cells) was > 20000 nM.
In the case of `CCCCCCCC/C=C\CCCCCCCCOC[C@H](COP(=O)(O)OC[C@H]1O[C@@](C#N)(c2ccc3c(N)ncnn23)[C@H](O)[C@@H]1O)OCc1ccc(OC)c(F)c1` [Compound 15m, 1-O-Oleyl-2-O-(3-fluoro, 4-methoxybenzyl)-sn-glyceryl-phospho-RVn], the CC50 (Huh7.5 cells [3]; Huh7.5 cells, read-out: CC50) is reported as > 20000 nM, the EC50 (HCoV-229E) is reported as 60 ± 14 nM and the EC90 (HCoV-229E) is reported as 110 ± 20 nM. The EC50 (SARS-CoV-2 [11]) was 54 nM, the EC90 (SARS-CoV-2 [11]) was 102 nM and the CC50 (MRC-5 cells) was > 50000 nM. The CC50 (Calu-3 cells) was 58500 ± 6280 nM, the EC50 (SRV A2 strain of RSV) was 5 nM and the EC90 (SRV A2 strain of RSV) was 9.4 nM. For the same molecule, the EC50 (SARS-CoV-2 [12]) was 296 nM, the EC90 (SARS-CoV-2 [12]) was 524 nM and the CC50 (Hep-2 cells) was 12500 nM. For the same molecule, the CC50 (TMPRSS2-Vero cells) was > 20000 nM.
In the case of `CCCCCCCCCCCCCCCCCCOC[C@H](COP(=O)(O)OC[C@H]1O[C@@](C#N)(c2ccc3c(N)ncnn23)[C@@H](O)C1O)OCc1ccc(C#N)cc1` (stereo partly shown) [OD(4-CN-Bn)G-P-RVn, 1-O-Octadecyl-2-O-(4-cyanobenzyl)-sn-glyceryl-phospho-RVn], the SI (Calu 3) is reported as 1400, the EC50 (Calu 3; read-out: EC50) is reported as 43 ± 13 nM and the EC90 (Calu 3; read-out: EC90) is reported as 82 ± 22 nM. The SI (Huh7.5) was 1966, the EC50 (Huh7.5; read-out: EC50) was 24 ± 2 nM and the EC90 (Huh7.5; read-out: EC90) was 70 ± 10 nM.
With `CCCCCCCCCCCCCCCCCCOCCOP(=O)(CO[C@H](C)Cn1cnc2c(N)ncnc21)OCc1ccc(C)cc1` (stereo partly shown) [ODE-4MeBN-TFV] the CC50 (human PBMCs) was 3410 nM, the “T1/2 of TFVpp” value (HFF cells) was 3.1 and the “Tmax of TFVpp” value (HFF cells) was 0 h. For the same molecule, the “Selectivity Index” value (HIV-1) was 1620 and the EC50 (HIV-1) was 2.1 nM.
